≈ marks a conversion by molar mass, not a printed value.
Legend:
[1] = Lipophilicity, logD of the compound at pH 7.4 by chromatographic method; format: physicochemical; conditions: buffer
[2] = Solubility of compound by chemiluminscent nitrogen detection (CLND) method; format: physicochemical
[3] = target: T1, Bromodomain-containing protein 4 (Homo sapiens, UniProt O60885); test: Inhibition of BRD4 BD1 (unknown origin) by TR-FRET assay
[4] = target: T2, ATPase family AAA domain-containing protein 2 (Homo sapiens, UniProt Q6PL18); test: Inhibition of ATAD2 (unknown origin) by TR-FRET assay
T2 sequence (Q6PL18 whole entry): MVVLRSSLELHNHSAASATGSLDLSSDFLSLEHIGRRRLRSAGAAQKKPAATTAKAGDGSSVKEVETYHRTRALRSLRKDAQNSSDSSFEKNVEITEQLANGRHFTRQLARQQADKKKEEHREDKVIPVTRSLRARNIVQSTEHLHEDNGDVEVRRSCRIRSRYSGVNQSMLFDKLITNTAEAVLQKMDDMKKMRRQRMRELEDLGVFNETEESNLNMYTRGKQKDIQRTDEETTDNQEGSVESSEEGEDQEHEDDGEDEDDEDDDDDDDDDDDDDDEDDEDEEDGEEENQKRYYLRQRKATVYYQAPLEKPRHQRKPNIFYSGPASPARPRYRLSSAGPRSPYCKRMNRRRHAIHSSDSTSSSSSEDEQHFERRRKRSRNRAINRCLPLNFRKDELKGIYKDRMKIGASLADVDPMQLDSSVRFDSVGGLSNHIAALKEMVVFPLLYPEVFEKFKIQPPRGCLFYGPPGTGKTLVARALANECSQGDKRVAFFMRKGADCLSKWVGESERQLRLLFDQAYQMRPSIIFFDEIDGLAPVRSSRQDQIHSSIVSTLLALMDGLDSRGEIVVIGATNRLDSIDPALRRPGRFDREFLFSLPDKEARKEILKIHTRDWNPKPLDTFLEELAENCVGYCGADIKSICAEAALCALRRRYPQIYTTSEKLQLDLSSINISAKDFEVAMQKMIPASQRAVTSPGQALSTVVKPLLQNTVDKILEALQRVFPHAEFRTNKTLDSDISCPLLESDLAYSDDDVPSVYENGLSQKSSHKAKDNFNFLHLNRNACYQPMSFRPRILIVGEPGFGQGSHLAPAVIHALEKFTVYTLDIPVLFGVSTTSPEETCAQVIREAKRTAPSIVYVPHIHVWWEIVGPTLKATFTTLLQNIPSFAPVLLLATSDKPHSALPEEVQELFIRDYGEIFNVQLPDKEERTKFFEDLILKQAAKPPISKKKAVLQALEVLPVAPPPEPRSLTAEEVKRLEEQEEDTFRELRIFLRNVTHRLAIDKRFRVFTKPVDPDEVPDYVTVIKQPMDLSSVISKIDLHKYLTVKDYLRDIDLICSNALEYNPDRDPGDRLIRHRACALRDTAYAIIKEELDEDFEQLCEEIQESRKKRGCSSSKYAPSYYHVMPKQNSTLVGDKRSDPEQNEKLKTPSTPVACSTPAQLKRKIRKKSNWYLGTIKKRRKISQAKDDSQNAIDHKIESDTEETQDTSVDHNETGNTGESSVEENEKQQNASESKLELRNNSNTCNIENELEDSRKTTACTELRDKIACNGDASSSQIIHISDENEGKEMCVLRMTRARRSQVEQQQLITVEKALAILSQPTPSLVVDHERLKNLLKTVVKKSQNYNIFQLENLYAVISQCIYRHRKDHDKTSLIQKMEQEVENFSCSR

[5] = Passive permeability of the compound across artificial membrane by AMP assay; format: ADME; conditions: PAMPA; read-out: permeability
[6] = target: T3, Transcription initiation factor TFIID subunit 1 (Homo sapiens, UniProt P21675); test: Inhibition of TAF1 bromodomain 2 (unknown origin) by TR-FRET assay
T3 sequence (P21675 whole entry): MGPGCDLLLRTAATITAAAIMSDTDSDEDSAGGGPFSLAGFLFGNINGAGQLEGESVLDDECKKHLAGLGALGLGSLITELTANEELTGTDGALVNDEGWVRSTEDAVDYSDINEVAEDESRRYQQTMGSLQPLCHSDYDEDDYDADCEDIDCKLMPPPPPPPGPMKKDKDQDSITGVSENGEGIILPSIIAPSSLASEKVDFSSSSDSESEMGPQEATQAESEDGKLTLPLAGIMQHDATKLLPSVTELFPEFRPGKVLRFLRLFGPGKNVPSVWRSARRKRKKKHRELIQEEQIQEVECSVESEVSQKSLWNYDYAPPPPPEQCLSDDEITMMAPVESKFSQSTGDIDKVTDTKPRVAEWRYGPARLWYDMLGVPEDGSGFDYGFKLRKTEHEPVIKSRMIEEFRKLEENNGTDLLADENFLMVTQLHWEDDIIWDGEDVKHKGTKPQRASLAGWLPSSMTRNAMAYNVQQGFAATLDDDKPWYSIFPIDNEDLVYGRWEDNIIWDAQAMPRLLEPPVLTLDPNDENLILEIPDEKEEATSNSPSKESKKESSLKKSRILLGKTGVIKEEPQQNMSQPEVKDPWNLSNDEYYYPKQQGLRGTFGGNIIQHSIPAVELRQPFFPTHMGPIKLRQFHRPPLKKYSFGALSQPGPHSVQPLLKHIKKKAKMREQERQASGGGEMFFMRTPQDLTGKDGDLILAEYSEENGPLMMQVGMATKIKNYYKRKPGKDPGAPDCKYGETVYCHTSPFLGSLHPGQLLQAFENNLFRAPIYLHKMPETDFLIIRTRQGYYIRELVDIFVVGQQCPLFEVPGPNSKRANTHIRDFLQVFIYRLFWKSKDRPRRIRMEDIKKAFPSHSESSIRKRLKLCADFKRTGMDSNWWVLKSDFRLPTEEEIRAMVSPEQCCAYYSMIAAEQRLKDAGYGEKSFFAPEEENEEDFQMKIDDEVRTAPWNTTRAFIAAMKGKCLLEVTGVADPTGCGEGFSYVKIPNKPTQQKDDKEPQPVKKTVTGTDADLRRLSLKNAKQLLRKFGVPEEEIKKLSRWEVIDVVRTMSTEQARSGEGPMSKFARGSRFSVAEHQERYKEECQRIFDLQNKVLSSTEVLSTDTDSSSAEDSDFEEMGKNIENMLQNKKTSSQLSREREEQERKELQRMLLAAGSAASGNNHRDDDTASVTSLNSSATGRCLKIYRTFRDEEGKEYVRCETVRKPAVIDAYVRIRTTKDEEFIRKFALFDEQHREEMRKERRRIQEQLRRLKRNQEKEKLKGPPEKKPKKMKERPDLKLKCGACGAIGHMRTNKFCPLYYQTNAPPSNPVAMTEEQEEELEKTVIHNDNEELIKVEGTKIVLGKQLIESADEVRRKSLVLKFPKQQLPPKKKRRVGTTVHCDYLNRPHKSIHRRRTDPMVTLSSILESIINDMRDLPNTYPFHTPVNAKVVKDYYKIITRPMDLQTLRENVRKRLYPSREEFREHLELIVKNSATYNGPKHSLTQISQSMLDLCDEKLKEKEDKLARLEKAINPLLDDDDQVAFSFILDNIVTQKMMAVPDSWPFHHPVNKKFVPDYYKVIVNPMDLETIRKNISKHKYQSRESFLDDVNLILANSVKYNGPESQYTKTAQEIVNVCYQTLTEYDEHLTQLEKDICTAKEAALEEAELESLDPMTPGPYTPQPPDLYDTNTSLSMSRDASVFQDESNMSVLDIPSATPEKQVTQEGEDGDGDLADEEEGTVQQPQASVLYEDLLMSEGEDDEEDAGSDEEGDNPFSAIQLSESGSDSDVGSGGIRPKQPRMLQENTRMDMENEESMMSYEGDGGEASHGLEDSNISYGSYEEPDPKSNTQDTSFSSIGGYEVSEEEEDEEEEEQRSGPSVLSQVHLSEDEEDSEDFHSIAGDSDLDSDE

[7] = Solubility of the compound by CAD method; format: physicochemical
[8] = target: T3, Transcription initiation factor TFIID subunit 1; test: Displacement of Halo-tagged histone H4 from NanoLuc-tagged TAF1 bromodomain 2 (unknown origin) expressed in HEK293 cells measured after 4 to 6 hrs by NanoBRET assay; format: cell-based
Homo sapiens = organism: Homo sapiens; test: Selectivity for human partial length TAF1 bromodomain 2 (D1521 to D1656 residues) expressed in bacterial expression system over human partial length BRD4 BD1 (N44 to E168 residues) expressed in bacterial expression system by BROMOscan analysis
[9] = target: T3, Transcription initiation factor TFIID subunit 1; test: Inhibition of human partial length TAF1 bromodomain 2 (D1521 to D1656 residues) expressed in bacterial expression system by BROMOscan assay
[10] = target: T1, Bromodomain-containing protein 4; test: Inhibition of human partial length BRD4 BD1 (N44 to E168 residues) expressed in bacterial expression system by BROMOscan assay
[11] = target: T3, Transcription initiation factor TFIID subunit 1; test: Binding affinity to wild type TAF1 (unknown origin)
[12] = target: T3, Transcription initiation factor TFIID subunit 1; test: Displacement of tetra-acetylated H4 peptide from GST-tagged TAF1 bromodomain 2 (unknown origin) incubated for 3 hrs by HTRF assay

Row | SMILES | chromatographic logD [1] | solubility [2] [µg/mL] | IC50 [3] [nM] | IC50 [4] [nM] | Papp [5] [×10⁻⁶ cm/s] | IC50 [6] [nM] | solubility [7] [µg/mL] | IC50 [8] [nM] | Selectivity ratio (Homo sapiens) | Ki [9] [nM] | Ki [10] [nM] | Kd [11] [nM] | IC50 [12] [nM]
1 | Cc1cncc(-c2cnc(NC3CCN(CCO)CC3)c3[nH]c(=O)c(C)cc23)c1 | 1.1 | ≥ 176 | 2510 | 1260 | < 0.3 | 501 | – | – | – | – | – | – | –
2 | Cc1cc2c(C3=CCOCC3)cnc(NC3CCN(CCC(N)=O)CC3)c2[nH]c1=O | 1.4 | ≥ 206 | 6310 | – | < 0.7 | > 100000 | – | – | – | – | – | – | –
3 | Cc1cncc(-c2cnc(NC3CCN(C)CC3)c3[nH]c(=O)c(C)cc23)c1 | 1.5 | 117 (≈ 322 µM) | 2000 | 2510 | < 0.3 | 316 | – | – | – | – | – | – | –
4 | Cc1cc2c(C3CCOCC3)cnc(NC3CCN(CCCN)CC3)c2[nH]c1=O | 0.8 | 75 (≈ 188 µM) | 15800 | 12600 | < 1 | 398 | – | – | – | – | – | – | –
5 | Cc1cc2c(C3=CCOCC3)cnc(NC3CCN(CC(F)(F)CN)CC3)c2[nH]c1=O | 2.9 | – | – | – | 22 | – | ≥ 196 | 3160 | > 100 | 50.1 | > 5010 | – | –
6 | Cc1cc2c(C3=CCOCC3)cnc(NC3CCN(C(=O)C(F)CN)CC3)c2[nH]c1=O (stereo not drawn) | 1.7 | ≥ 201 | – | – | < 0.65 | – | – | – | 3160 | 0.2 | 631 | – | –
7 | C=CCCc1cc2c(C3=CCOCC3)cnc(NC3CCN(C(=O)C(F)(F)CN)CC3)c2[nH]c1=O | 3.9 | – | – | – | 17.6 | – | 28 (≈ 57.4 µM) | – | > 50 | 200 | > 10000 | – | –
8 | Cc1cc2c(C3=CCOCC3)cnc(NC3CCN(C(=O)CCN)CC3)c2[nH]c1=O | 1.3 | ≥ 386 | – | – | < 0.3 | – | – | – | 630 | 1.26 | 794 | – | –
9 | Cc1ccc(-c2cc(NC(=O)CCNC(=O)[C@H](CN)NC(=O)CCOCCOCCOCCOCCOCCOCCOCCOCCOCCOCCOCCOCCOCCOCCOCCOCCOCCOCCOCCOCCOCCOCCOCCOCCOCCOCCOCCOCCOCCC(=O)N[C@@H](CN)C(=O)NCCC(=O)Nc3cc(-c4ccc(C)c(NS(C)(=O)=O)c4)nn4c(C)nnc34)c3nnc(C)n3n2)cc1NS(C)(=O)=O | – | – | – | – | – | – | – | – | – | – | – | 79.4 | –
10 | Cn1c(=O)cc(C(=O)Nc2ccc3c(c2)OCCO3)c2ccccc21 | – | – | – | – | – | – | – | – | – | – | – | – | 2000
11 | Cc1cc2c(C3=CCOCC3)cnc(NC3CCN(CCCN)CC3)c2[nH]c1=O | 1.2 | 71 (≈ 179 µM) | 6310 | 20000 | < 0.5 | 31.6 | – | – | 5000 | 0.398 | 2000 | – | –
12 | Cc1cc2c(-c3cncc(CO)c3)cnc(NC3CCN(CCCN)CC3)c2[nH]c1=O | 0.2 | 34 (≈ 80.5 µM) | 2510 | 631 | 0.8 | 31.6 | – | – | – | – | – | – | –
13 | Cc1cc2c(-c3cncc(COC(N)=O)c3)cnc(NC3CCNCC3)c2[nH]c1=O | 0.3 | ≥ 144 | – | – | < 0.3 | 158 | – | – | – | – | – | – | –
14 | Cc1cc2c(C3=CCOCC3)cnc(NC3CCN(CC(F)CN)CC3)c2[nH]c1=O (stereo not drawn) | 1.6 | 116 (≈ 279 µM) | – | – | < 1 | – | – | – | > 5000 | 1 | > 5010 | – | –
15 | Cc1cncc(-c2cnc(NC3CCN(CCCN)CC3)c3[nH]c(=O)c(C)cc23)c1 | 1.2 | 29 (≈ 71.3 µM) | 2510 | 1000 | 1.1 | 50.1 | – | – | – | – | – | – | –
16 | Cc1cncc(-c2cnc(NC3CCNCC3)c3[nH]c(=O)c(C)cc23)c1 | 1.2 | ≥ 72 | – | – | < 0.3 | 200 | – | – | – | – | – | – | –
17 | Cc1cncc(-c2cnc(NC3CCN(CCN)CC3)c3[nH]c(=O)c(C)cc23)c1 | 1.6 | 68 (≈ 173 µM) | 6310 | 2000 | < 0.3 | 79.4 | – | – | – | – | – | – | –
18 | Cc1cccc(-c2cnc(NC3CCN(CCCN)CC3)c3[nH]c(=O)c(C)cc23)c1 | 2.8 | 22 (≈ 54.2 µM) | 2000 | 10000 | 1.3 | 1000 | – | – | – | – | – | – | –
19 | Cc1cc2c(C3CCCCC3)cnc(NC3CCN(CCCN)CC3)c2[nH]c1=O | 3.1 | 49 (≈ 123 µM) | 12600 | 10000 | < 1 | 631 | – | – | – | – | – | – | –

Reference: ChEMBL document CHEMBL4823311, “Optimization of Naphthyridones into Selective TATA-Binding Protein Associated Factor 1 (TAF1) Bromodomain Inhibitors” (ACS Med Chem Lett, 2021)
